Consider twelve compounds from US6605628B1, “Method of using 5-(arysulfonyl)-, 5-(arylsulfanyl)-and 5-(arylsulfanyl)thiazolidine-2,4-diones for inhibition of farnesyl-protein transferase” (Wyeth Holdings Corporation, priority 2001, dated 2003).

The target of data set [1] is T1, FPTase (Homo sapiens, UniProt P49354+P49356). The data set is described as follows: in vitro FTase Inhibition Assay, H-Ras used as substrate for farnesylation. The class given is biochemical. To be noted: Table I, read-out: IC50 H-Ras*.
Data set [2] addresses T1, FPTase. The experiment in a line: in vitro FTase Inhibition Assay, K-Ras used as substrate for farnesylation. The data set is classed as biochemical. The conditions noted are these: Table I.
Data set [3] deals with K-ras dependent human colon carcinoma (LoVo). The data set is described as follows: in vivo effects against K-ras dependent human colon carcinoma (LoVo). The conditions noted are these: for S/T = No. Survivors/No.Treated: Day +35 post tumor cell implantation. An excerpt:
[…] For the compound of example 114, when tested against a K-ras dependent human colon carcinoma (LoVo), the following results were obtained (Table III):

[4] abbreviates: 50 mg/kg per dose IP, BID days 1 through 20, control 0.5% Methocel 0.4% Tween 80.
[5] abbreviates: 75 mg/kg per dose IP, BID days 1 through 20, control 0.5% Methocel 0.4% Tween 80.
Setting [6] is: 100 mg/kg per dose IP, once a day on days 1 through 20, control 0.5% Methocel 0.4% Tween 80.
Setting [7] is: 100 mg/kg per dose PO, BID days 1 through 20, control 0.5% Methocel 0.4% Tween 80.
Where [8] appears, read: 100 mg/kg per dose PO, BID days 1 through 20, control 20% BCD in 1.1N HCl.
The mark [9] stands for this setting: 75* mg/kg per dose IP, BID days 1 through 20, prepared in 2% Tween 80 in D5W, control 2% Tween in D5W.

As usually defined, the melting point is the temperature, or range, at which the solid turns liquid. In turn, `COc1ccc(SC2(CCCCCCCCCC#Cc3ccc(Cl)cc3)SC(=O)NC2=O)cc1` (stereo not drawn) [Example 94, 5-[11-(4-Chlorophenyl)undec-10-ynyl]-5-(4-methoxy-phenylsulfanyl)-thiazolidine-2,4-dione] came in with a melting point of 54 to 56 °C.
The same measure, in the same setting: in the case of `COc1ccc(S(=O)(=O)C2(CCCCC#Cc3ccc(Cl)cc3)SC(=O)NC2=O)cc1` (stereo not drawn) [Example 98, 5-[6-(4-Chlorophenyl)hex-5-ynyl]-5-(4-methoxyphenylsulfonyl)-thiazolidine-2,4-dione] it was 145 to 148 °C.
As usually defined, the IC50 is the concentration that gives 50% inhibition. Consider `COc1ccc(S(=O)(=O)C2(CCCC#Cc3ccccc3Cl)SC(=O)NC2=O)cc1` (stereo not drawn) [Example 101, 5-[5-(2-Chlorophenyl)pent-4-ynyl]-5-(4-methoxybenzenesulfonyl)thiazolidine-2,4-dione], for which the melting point lay in the range of 133 to 135 °C. Moreover, the IC50 on FPTase [1] lay in the range of 0.01 to 0.03 µM. The IC50 at FPTase [2] was 0.11 to 1 µM.
Regarding `COc1ccc(S(=O)(=O)C2(CCCC#Cc3cccc(Cl)c3)SC(=O)NC2=O)cc1` (stereo not drawn) [Example 102, 5-[5-(3-Chlorophenyl)pent-4-ynyl]-5-(4-methoxybenzenesulfonyl)thiazolidine-2,4-dione], the melting point lay within 134 to 136 °C. Also, the IC50 at FPTase [1] lay in the range of 0.03 to 0.032 µM. Besides, on FPTase [2], half-maximal inhibition (IC50) was put at 1.4 µM.
In turn, `Cc1ccc(S(=O)(=O)C2(CCCC#Cc3ccc(Cl)cc3)SC(=O)NC2=O)cc1` (stereo not drawn) [Example 103, 5-[5-(4-Chlorophenyl)pent-4-ynyl]-5-(p-tolylsulfonyl)thiazolidine-2,4-dione] displayed a melting point of 176 to 177 °C. At FPTase [1], the IC50 was 0.03 to 0.05 µM. This compound also showed an IC50 against FPTase [2] of 0.9 to 10 µM.
As for `O=C1NC(=O)C(CCCC#Cc2ccc(Cl)cc2)(S(=O)(=O)c2ccc(I)cc2)S1` (stereo not drawn) [Example 104, 5-[5-(4-Chlorophenyl)pent-4-ynyl]-5-(4-iodobenzenesulfonyl)thiazolidine-2,4-dione], the melting point fell in the range of 157 to 159 °C. In addition, the IC50 at FPTase [1] was 0.03 to 0.054 µM. This compound also yielded an IC50 on FPTase [2] of 0.23 to 0.9 µM.
The like results for `O=C1NC(=O)C(CCCC#Cc2ccc(Cl)cc2)(S(=O)(=O)c2ccc(Oc3ccccc3)cc2)S1` (stereo not drawn) [Example 106, 5-[5-(4-Chlorophenyl)pent-4-ynyl]-5-(4-phenoxybenzenesulfonyl)-thiazolidine-2,4-dione] were, in that order, 193 to 194 °C, 0.23 to 0.25 µM and 1.3 to 1.7 µM.
`O=C1NC(=O)C(CCCC#Cc2ccc(Cl)cc2)(S(=O)(=O)c2ccc3ccccc3c2)S1` (stereo not drawn) [Example 107, 5-[5-(4-Chlorophenyl)pent-4-ynyl]-5-(naphthalene-2-sulfonyl)thiazolidine-2,4-dione] returned a melting point of 150 to 153 °C. For the same compound, the IC50 at FPTase [1] was 0.18 to 0.2 µM. The IC50 against FPTase [2] was 0.62 to 0.7 µM.
In the case of `COc1ccc(S(=O)(=O)C2(CCCC#Cc3cc(Cl)ccc3Cl)SC(=O)NC2=O)cc1` (stereo not drawn) [Example 114, 5-[5-(2,5-Dichloro-phenyl)pent-4-ynyl]-5-(4-methoxy-benzenesulfonyl)-thiazolidine-2,4-dione], the IC50 at FPTase [1] fell in the range of 0.013 to 0.032 µM. Further, at FPTase [2], the IC50 was in the range of 0.032 to 0.32 µM. In data set [3] (setting [4]), the “% T/C, Day8” value came out at 74%; the “% T/C, Day 15” value turned out to be 47%; the “% T/C, Day 22” value came to 43%; the “% T/C, Day 29” value turned out to be 59%. Also, in data set [3] (setting [4]), the “% T/C, Day 36” value was determined as 76%; the “Mean Tumor Weight, Day8” value was found to be 65 mg; the “Mean Tumor Weight, Day 15” value is 146 mg; the “Mean Tumor Weight, Day 22” value was 258 mg. Further, in data set [3] (setting [4]), the “Mean Tumor Weight, Day 29” value turned out to be 445 mg; the “Mean Tumor Weight, Day 36” value is on record as 964 mg; the “S/T = No. Survivors/No.Treated” value is on record as 5/10. Besides, in data set [3] (setting [5]), the “% T/C, Day8” value stood at 51%; the “% T/C, Day 15” value was 36%; the “% T/C, Day 22” value was 43%; the “% T/C, Day 29” value came out at 67%. In addition, in data set [3] (setting [5]), the “% T/C, Day 36” value is 60%; the “Mean Tumor Weight, Day8” value was 45 mg; the “Mean Tumor Weight, Day 15” value was 110 mg; the “Mean Tumor Weight, Day 22” value turned out to be 255 mg. Also, in data set [3] (setting [5]), the “Mean Tumor Weight, Day 29” value is listed as 504 mg; the “Mean Tumor Weight, Day 36” value is given as 764 mg; the “S/T = No. Survivors/No.Treated” value was 8/10. Also, in data set [3] (setting [6]), the “% T/C, Day8” value is recorded as 35%; the “% T/C, Day 15” value was determined as 41%; the “% T/C, Day 22” value stood at 42%; the “% T/C, Day 29” value is listed as 46%. Moreover, in data set [3] (setting [6]), the “% T/C, Day 36” value is listed as 44%; the “Mean Tumor Weight, Day8” value came to 31 mg; the “Mean Tumor Weight, Day 15” value was 125 mg; the “Mean Tumor Weight, Day 22” value came out at 251 mg. Besides, in data set [3] (setting [6]), the “Mean Tumor Weight, Day 29” value is 341 mg; the “Mean Tumor Weight, Day 36” value turned out to be 559 mg; the “S/T = No. Survivors/No.Treated” value was 9/10. For the same compound, in data set [3] (setting [7]), the “% T/C, Day8” value is reported as 70%; the “% T/C, Day 15” value is on record as 77%; the “% T/C, Day 22” value was 76%; the “% T/C, Day 29” value is recorded as 81%. Moreover, in data set [3] (setting [7]), the “% T/C, Day 36” value turned out to be 74%; the “Mean Tumor Weight, Day8” value worked out at 61 mg; the “Mean Tumor Weight, Day 15” value turned out to be 238 mg; the “Mean Tumor Weight, Day 22” value is 454 mg. Further, in data set [3] (setting [7]), the “Mean Tumor Weight, Day 29” value was 608 mg; the “Mean Tumor Weight, Day 36” value was found to be 934 mg; the “S/T = No. Survivors/No.Treated” value is reported as 10/10. Besides, in data set [3] (setting [8]), the “% T/C, Day8” value worked out at 81%; the “% T/C, Day 15” value is given as 95%; the “% T/C, Day 22” value was found to be 88%; the “% T/C, Day 29” value is recorded as 128%. In data set [3] (setting [8]), the “% T/C, Day 36” value was 107%; the “Mean Tumor Weight, Day8” value is given as 50 mg; the “Mean Tumor Weight, Day 15” value is reported as 138 mg; the “Mean Tumor Weight, Day 22” value was determined as 299 mg. Besides, in data set [3] (setting [8]), the “Mean Tumor Weight, Day 29” value was determined as 641 mg; the “Mean Tumor Weight, Day 36” value stood at 872 mg; the “S/T = No. Survivors/No.Treated” value was 9/10. In addition, in data set [3] (setting [9]), the “% T/C, Day8” value was 221%; the “% T/C, Day 15” value was 150%; the “% T/C, Day 22” value worked out at 163%; the “% T/C, Day 29” value came out at 167%. Moreover, in data set [3] (setting [9]), the “% T/C, Day 36” value was found to be 157%; the “Mean Tumor Weight, Day8” value came out at 86 mg; the “Mean Tumor Weight, Day 15” value was found to be 182 mg; the “Mean Tumor Weight, Day 22” value was determined as 324 mg. For the same compound, in data set [3] (setting [9]), the “Mean Tumor Weight, Day 29” value is given as 478 mg; the “Mean Tumor Weight, Day 36” value turned out to be 666 mg; the “S/T = No. Survivors/No.Treated” value was 10/10.
As to `COC(=O)c1ccc(C#CCCCC2(S(=O)(=O)c3ccc(OC)cc3)SC(=O)NC2=O)c(C)c1` (stereo not drawn) [Example 160, 4-{5-[5-(4-Methoxybenzenesulfonyl)-2,4-dioxothiazolidin-5-yl]pent-1-ynyl}-3-methylbenzoic Acid Methyl Ester], the melting point lay within 128 to 130 °C.
`COc1ccc(S(=O)(=O)C2(CCCC#Cc3ccc(-n4cccc4)cc3)SC(=O)NC2=O)cc1` (stereo not drawn) [Example 161, 5-(4-Methoxybenzenesulfonyl)-5-[5-(4-pyrrol-1-yl-phenyl)pent-4-ynyl]-thiazolidine-2,4-dione]: the melting point was 206 to 207 °C. In addition, the IC50 at FPTase [1] came to 0.9 µM.
The corresponding values for `O=C1NC(=O)C(CCCC#Cc2ccc(-n3cccc3)cc2)(S(=O)(=O)c2ccc(OC(F)(F)F)cc2)S1` (stereo not drawn) [Example 163, 5-[5-(4-Pyrrol-1-ylphenyl)pent-4-ynyl]-5-(4-trifluoromethoxybenzenesulfonyl)-thiazolidine-2,4-dione] are 204 to 206 °C and 1.3 µM.
